From patent US20040133938A1, “Use of lipoic acid in plant culture media” (priority 2002, published 2004)

Tested on: potato stem explants, cultivar Ranger Russet
Assay: Potato Agrobacterium transformation with glyphosate selection
Assay type: cell-based
Settings: for #rooted / shoots: 400 explants; for % TE (transformation efficiency) / % escape: potato
Description: This Example describes the use of lipoic acid in an Agrobacterium-based potato transformation protocol. Five days prior to inoculation, Agrobacterium containing the transformation vector of interest were streaked on a fresh LBssck plate (see media descriptions in Example 1) from the frozen glycerol stock, grown at about 28° C. for 3-4 days and stored in the refrigerator. About 20-22 hours before inoculation, 50 mL of liquid LBssck media (see media descriptions in Example 1) were dispensed into a 250-mL sterile flask. Using a sterile bacteriological loop, one loopful of bacteria from the LBssck plate was inoculated and agitated in the liquid LBssck. The 250-mL flasks were shaken at 25° C. overnight at medium to high speed. On inoculation day, 45 mL of MSO (4.4 g/L MS salts, 2 mL/L, Gamborg's B5 salts, 30 g/L sucrose) were dispensed into a 250 mL sterile flask. Using a sterile 5 mL pipette, 5 mL of the suspension was removed and dispensed into the flask containing the 45 mL of MSO and then agitated. The desired O.D. used for Agrobacterium transformation in potato was O.D.660=0.1.
The stock plant material to be used was collected from the growth chamber (16-hour light, 20° C.). The meristem was excised from the stock plants, and the cut end was placed in fresh PM (see media descriptions below) media, with ten meristems per plantcon. The leaves were removed from the potato stems by either cutting with a scalpel or pinching them off with forceps. After removing all the leaves in the plantcon, the stems were excised near the base and placed in an empty, sterile plantcon containing MSO. During this process, the plantcon(s) containing stems were kept closed except when adding more stems.
On the day of the inoculation, the stems were cut into 7 mm sections using a sterile scalpel and forceps. A 1/10 Agrobacterium solution was prepared by pipetting 4 mL of the Agrobacterium culture into 36 mL of MSO. The 1/10 agro solution was poured into the respective plates and swirled gently. A small amount of MSO was dispensed into the regeneration tissue and swirled. It was incubated for 15 min.
After 15 minutes, the Agrobacterium solution was removed with a vacuum aspirator. Using a sterile scoopula, the explants were scooped and spread onto the coculture plates with a piece of sterile 8.5 cm Whatman filter paper placed in the middle, about 100 explants per plate. The plates were placed in a bag and stored in a warm room ( 16/8 hour light, 19° C.) for two days.
After the two-day co-culture period, explants were placed on the appropriate selection media corresponding to the selectable marker provided in the transformation vector.
The explants were placed on the Z1 nonselection media at 20 explants per plate. The plates were placed in a bag and stored in a warm room (16-hour light, 19° C.). The glyphosate constructs were transferred to selection medium in 3 days.
In three days, the explants were transferred to Z1 glyphosate selection media at 20 explants per plate. The plates are bagged and placed in the warm room for one week.
After one week, the explants that were on Z1 glyphosate media were transferred to Z2 glyphosate media at 20 explants per plate. The plates were bagged and placed back in the warm room for 4 weeks. They remained on-this selection media for four weeks.
After two weeks, the experiment was checked for any shoots at this point. Shoots that were originating directly from the callusing end of the explant were excised. The shoots were placed on rooting media containing either kanamycin or glyphosate depending upon the selection used in the experiment and placed in the growth chamber. These were checked for rooting in two weeks. Any that were rooting were cut into tubes. This process was repeated after 2 more weeks. Any non-rooting plants were discarded after 4 weeks.
The lipoic acid study was conducted using the glyphosate transformation protocol as outlined above. […]

[1] = 8 μM lipoic acid, listed as Lipoic acid
[2] = 9 μM lipoic acid, listed as Lipoic acid

O=C(O)CCCCC1CCSS1 (stereo not shown) [lipoic acid, 1,2-dithiolane-3-pentanoic acid]
#rooted (6 μM lipoic acid): 18 | shoots (6 μM lipoic acid): 27 | % TE (transformation efficiency) (6 μM lipoic acid): 4.5% | % escape (6 μM lipoic acid): 33.0% | #rooted (7 μM lipoic acid): 16 | shoots (7 μM lipoic acid): 25 | % TE (transformation efficiency) (7 μM lipoic acid): 4.0% | % escape (7 μM lipoic acid): 36.0% | #rooted (8 μM lipoic acid): 75 | shoots (8 μM lipoic acid): 89 | % TE (transformation efficiency) (8 μM lipoic acid): 19.0% | % escape (8 μM lipoic acid): 16.0% | % TE (transformation efficiency) [1]: 19% | % escape [1]: 16% | #rooted (9 μM lipoic acid): 70 | shoots (9 μM lipoic acid): 89 | % TE (transformation efficiency) (9 μM lipoic acid): 18.0% | % escape (9 μM lipoic acid): 21.0% | % TE (transformation efficiency) [2]: 18% | % escape [2]: 21% | increase in transformation efficiency (lipoic acid at 8 μM and 9 μM vs control): sixfold increase | effect on transformation efficiency and escapes (lipoic acid at 6 and 7 μM): little effect
